O=c1[nH]c(=O)n(C2CCCO2)cc1F (centres undefined)
solubility (mole fraction)
Settings	273.15 K	278.15 K	283.15 K	288.15 K	293.15 K	298.15 K	303.15 K	308.15 K	313.15 K
in acetone	0.00932	0.0115	0.014	0.0168	0.0196	0.0233	0.0277	0.0326	0.0388
in ethanol	0.00118	0.00152	0.00198	0.00253	0.00318	0.00402	0.00506	0.00629	0.00767
in ethyl acetate	0.00607	0.00718	0.00837	0.00957	0.0109	0.0122	0.0137	0.0153	0.0175
in isopropanol	0.00086	0.00109	0.00139	0.00179	0.00227	0.00286	0.00358	0.00444	0.00547
in methanol	0.00362	0.00428	0.00495	0.00592	0.00692	0.00802	0.00925	0.0107	0.0126
in n-propanol	0.00112	0.00141	0.00176	0.00223	0.00274	0.00343	0.0042	0.00516	0.00618

— BigSolDB 2.1
